Experimental data taken from US20250213707A1, “COMPOUND FOR INCREASING EFFICACY OF ONCOLYTIC VIRUSES” (ABLEVIA BIOTECH GMBH, priority 2022, published 2025).

Tests used:
mAb Mac2-158 = assay: Epitope mapping of mAb Mac2-158 with circular peptides of human CD163 SRCR domain 1; format: binding; details: circular peptides aligned to SRCR domain 1 of human CD163
Source text: As a result, the following sequences (as well as motifs derived therefrom) are highly suitable epitopes anti-CD163 antibodies and fragments thereof used as SADC biopolymer scaffold: […]

[1] = tested on: IgG from human donors (anti-AAV antibodies); assay: Screen for anti-AAV antibodies in human sera, 2452 linear 15-amino-acid AAV peptides on microarrays (Table 1); format: binding; set-up: key to group I: X: the deduplicated aggregate of the respective top 10 peptide hits for each donor was compiled and designated as group I; key to group II: X: the deduplicated aggregate of the respective top 25 peptide hits for each donor was compiled and designated as group II; key to group III: X: the deduplicated aggregate of the respective top 50 peptide hits for each donor was compiled and designated as group III; details: human donor IgG binding to linear 15-amino-acid AAV peptides on microarray, fluorescence; for group I: membership in deduplicated aggregate of top 10 peptide hits for each donor; for group II: membership in deduplicated aggregate of top 25 peptide hits for each donor; for group III: membership in deduplicated aggregate of top 50 peptide hits for each donor
In short: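 Protein G-purified IgG from human donor blood incubated with microarrays of 2452 linear 15-mer peptides from 16 AAVs; binding read by fluorescence. Background-subtracted signals ranked per donor, with top 10, 25, 50 and 250 hits pooled and deduplicated into groups I-IV.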

mAb 9C12 = assay: Epitope mapping of monoclonal antibody 9C12 against cyclic peptides of the AdV hexon protein (peptide microarray); format: binding, mice; details: cyclic 7mer, 10mer, 13mer peptides of AdV hexon
Method: Monoclonal antibody 9C12 (alias mAB TC31-9C12·C9-s) was generated by immunizing mice with the hexon protein (Uniprot ID: P04133 which corresponds to GenBank: BAG48782.1). […] In brief, diluted antibody was incubated with GFP-expressing replication-defective Ad vector and subsequently added to Hela cells followed by fluorescence readout. […] The binding signal of mAb 9C12 to the peptides yielded several candidates that could be aligned and clustered against the protein. An epitopic cluster region of 20 amino acids was identified from which paratope binding peptides can be preferentially derived. Below are the aligments of the corresponding peptide hits from this screen. […] Cyclic peptides were selected out of up to 50 top binders in this experiment.

[2] = tested on: IgG from human donors (anti-measles virus antibodies); format: binding; set-up: key: X: The peptides belonging to the Top 10% hits
mAb ADK8 = assay: Epitope mapping of mAb ADK8 against AAV peptides; format: binding, mice
Source text: Monoclonal antibody ADK8 was generated by immunizing mice with AAV8 capsids. It is directed against the assembled AAV8 capsid (Sonntag et al, 2011). […] Moreover, the binding of AAV8 to the nuclear membrane as well as the nuclear entry were abrogated following neutralization by ADK8. […] ADK8 also cross-reacts with capsid proteins from other AAV serotypes such as AAV1, AAV3, AAV7 (Mietzsch et al, 2014) and was therefore chosen as an example from which general conclusions about the present invention can be drawn.
As for the other antibodies (see examples above), several clusters were identified, delineating regions from which preferred peptides can be deduced. Most preferably, the peptides aligned below according to their binding strengths can be used for selective antibody depletion and detection as hereinabove.

| Substance | peptide number among the top 20 peptide hits of mAb Mac2-158 (mAb Mac2-158) | group I [1] | group II [1] | group III [1] | ranked binding signal obtained from the microarray (01 binds strongest) (mAb 9C12) | top 10% [2] | peptide number according to binding strength (mAb ADK8) |
| --- | --- | --- | --- | --- | --- | --- | --- |
| PQYGYLTLNNGSQA (REGION 1..14: note = peptide derived from viral capsid protein) [SEQ ID NO: 1901] | 14 | X | X | X |  |  |  |
| DDEEKFFPMHGNLI [SEQ ID NO: 1976] |  | X | X | X | 09 |  |  |
| KKRPVDQSPQEPDS (REGION 1..14: note = peptide derived from viral capsid protein) [SEQ ID NO: 1985] |  | X | X | X | 18 |  |  |
| TQGTQQLLFSQAGP [SEQ ID NO: 1974] |  | X | X | X | 07 |  |  |
| FGKQGAGRDNVDYS [SEQ ID NO: 1915] |  | X | X | X |  | X |  |
| GDSESVPDPQPLGE [SEQ ID NO: 1983] |  | X | X | X | 16 |  |  |
| IFNIQVKEVTTSNG (REGION 1..14: note = peptide derived from viral capsid protein) [SEQ ID NO: 1907] | 02 | X | X | X |  |  |  |
| DGHFHPSPLMGGFG (REGION 1..14: note = peptide derived from viral capsid protein) [SEQ ID NO: 1977] |  | X | X | X | 10 |  |  |
| 365 (CSGRVEVKVQEEW) [compound 365] | 07 |  |  |  |  |  |  |
| EEIRTTNPVATEQY (REGION 1..14: note = peptide derived from viral capsid protein) [SEQ ID NO: 1980] |  | X | X | X | 13 |  |  |
| FNIQVKEVTTNDGV (REGION 1..14: note = peptide derived from viral capsid protein) [SEQ ID NO: 1910] | 06 | X | X | X |  |  |  |
| GNGLDKGEPVNAAD [SEQ ID NO: 1984] |  | X | X | X | 17 |  |  |
| DAEFQERLKEDTSF (REGION 1..14: note = peptide derived from viral capsid protein) [SEQ ID NO: 1975] |  | X | X | X | 08 |  |  |
| YFGYSTPWGYFDFN (REGION 1..14: note = peptide derived from viral capsid protein) [SEQ ID NO: 1972] |  | X | X | X | 05 |  |  |
| VTQNEGTKTIANNL [SEQ ID NO: 1970] |  | X | X | X | 03 |  |  |
| LEDNLSEGIREWWD (REGION 1..14: note = peptide derived from viral capsid protein) [SEQ ID NO: 1898] | 04 | X | X | X |  |  |  |
| TIANNLTSTIQVFT (REGION 1..14: note = peptide derived from viral capsid protein) [SEQ ID NO: 1968] |  | X | X | X | 01 |  |  |
| LSRTQSTGGTQGTQ [SEQ ID NO: 1973] |  | X | X | X | 06 |  |  |

| Substance | peptide number among the top 20 peptide hits of mAb Mac2-158 (mAb Mac2-158) | group I [1] | group II [1] | group III [1] | ranked binding signal obtained from the microarray (01 binds strongest) (mAb 9C12) | top 10% [2] | peptide number according to binding strength (mAb ADK8) |
| --- | --- | --- | --- | --- | --- | --- | --- |
| KRPVDQSPQEPDSS (REGION 1..14: note = peptide derived from viral capsid protein) [SEQ ID NO: 1986] |  | X | X | X | 19 |  |  |
| SFITQYSTGQVSVE (REGION 1..14: note = peptide derived from viral capsid protein) [SEQ ID NO: 1914] | 17 | X | X | X |  |  |  |
| GETTRPATAAQTQV [SEQ ID NO: 1906] | 01 | X | X | X |  |  |  |
| KSVNVDFTVDTNGV (REGION 1..14: note = peptide derived from viral capsid protein) [SEQ ID NO: 1987] |  | X | X | X | 20 |  |  |
| GADGVGNSSGNWHC (REGION 1..14: note = peptide derived from viral capsid protein) [SEQ ID NO: 1982] |  | X | X | X | 15 |  |  |
| FQERLKEDTSFGGN (REGION 1..14: note = peptide derived from viral capsid protein) [SEQ ID NO: 1981] |  | X | X | X | 14 |  |  |
| WLEDNLSEGIREWW (REGION 1..14: note = peptide derived from viral capsid protein) [SEQ ID NO: 1971] |  | X | X | X | 04 |  |  |
| DSESVPDPQPLGEP (REGION 1..14: note = peptide derived from viral capsid protein) [SEQ ID NO: 1978] |  | X | X | X | 11 |  |  |
| QLKAGDNPYLRYNH (REGION 1..14: note = peptide derived from viral capsid protein) [SEQ ID NO: 1913] | 13 | X | X | X |  |  |  |
| 344 (GRSSFYC) [compound 344] |  |  |  |  |  |  | 14 |
| GQTGDSESVPDPQP [SEQ ID NO: 1911] | 08 | X | X | X |  |  |  |
| TQYSTGQVSVEIEW (REGION 1..14: note = peptide derived from viral capsid protein) [SEQ ID NO: 1969] |  | X | X | X | 02 |  |  |
| 318 (RDVYLQG) [compound 318] |  |  |  |  |  |  | 20 |
| LIKNTPVPADPPTT (REGION 1..14: note = peptide derived from viral capsid protein) [SEQ ID NO: 1900] | 12 | X | X | X |  |  |  |
| 348 (NGSQAVGRSSFYC) [compound 348] |  |  |  |  |  |  | 35 |
| 313 (VYLQGPI) [compound 313] |  |  |  |  |  |  | 02 |
| 346 (AVGRSSFYCL) [compound 346] |  |  |  |  |  |  | 24 |
| EEEIRTTNPVATEQ (REGION 1..14: note = peptide derived from viral capsid protein) [SEQ ID NO: 1979] |  | X | X | X | 12 |  |  |
